Data reported in ChEMBL document CHEMBL5247653, “Discovery of Clinical Candidate ACT-777991, a Potent CXCR3 Antagonist for Antigen-Driven and Inflammatory Pathologies” (J Med Chem, 2023).
Values after ≈ are worked out from the molar mass of the structure shown. Active and inactive are the calls of the source. No cut-off for these calls is given here.

What was measured:
[1] = molecular target: Cytochrome P450 2D6 (Homo sapiens, UniProt P10635); assay: Competitive inhibition of CYP2D6 (unknown origin); type: ADME
[2] = Metabolic stability in dog hepatocyte assessed as M4 metabolite formation at 1 uM and measured upto 15 mins in presence of NADPH regenerating system by LC-MS/MS analysis; type: ADME, cell-based, Canis lupus familiaris; settings: hepatocytes, 0.25 h
[3] = molecular target: T1, C-X-C chemokine receptor type 3 (Mus musculus, UniProt O88410); assay: Antagonist activity at mouse CXCR3 expressed in CHO-K1 cells assessed as reduction in CXCL10 induced calcium flux by FLIPR method; type: cell-based
T1 sequence (O88410 whole entry): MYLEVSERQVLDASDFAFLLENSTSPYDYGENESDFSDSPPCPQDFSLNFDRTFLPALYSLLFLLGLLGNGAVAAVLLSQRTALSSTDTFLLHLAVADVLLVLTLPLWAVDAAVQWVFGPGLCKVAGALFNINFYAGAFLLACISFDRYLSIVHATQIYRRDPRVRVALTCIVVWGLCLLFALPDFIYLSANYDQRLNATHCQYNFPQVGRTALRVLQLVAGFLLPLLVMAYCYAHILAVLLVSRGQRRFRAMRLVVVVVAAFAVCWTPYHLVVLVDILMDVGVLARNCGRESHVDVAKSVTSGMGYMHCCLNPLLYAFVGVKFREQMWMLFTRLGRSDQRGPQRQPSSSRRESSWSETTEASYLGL

[4] = Induction of CYP3A4 mRNA upregulation in human hepatocytes upto 10 uM; type: ADME, cell-based, Hepatocyte
[5] = molecular target: Solute carrier organic anion transporter family member 1B3 (Homo sapiens, UniProt Q9NPD5); assay: Inhibition of human OATP1B3; type: ADME
Chain of Solute carrier organic anion transporter family member 1B3 (Q9NPD5 whole entry): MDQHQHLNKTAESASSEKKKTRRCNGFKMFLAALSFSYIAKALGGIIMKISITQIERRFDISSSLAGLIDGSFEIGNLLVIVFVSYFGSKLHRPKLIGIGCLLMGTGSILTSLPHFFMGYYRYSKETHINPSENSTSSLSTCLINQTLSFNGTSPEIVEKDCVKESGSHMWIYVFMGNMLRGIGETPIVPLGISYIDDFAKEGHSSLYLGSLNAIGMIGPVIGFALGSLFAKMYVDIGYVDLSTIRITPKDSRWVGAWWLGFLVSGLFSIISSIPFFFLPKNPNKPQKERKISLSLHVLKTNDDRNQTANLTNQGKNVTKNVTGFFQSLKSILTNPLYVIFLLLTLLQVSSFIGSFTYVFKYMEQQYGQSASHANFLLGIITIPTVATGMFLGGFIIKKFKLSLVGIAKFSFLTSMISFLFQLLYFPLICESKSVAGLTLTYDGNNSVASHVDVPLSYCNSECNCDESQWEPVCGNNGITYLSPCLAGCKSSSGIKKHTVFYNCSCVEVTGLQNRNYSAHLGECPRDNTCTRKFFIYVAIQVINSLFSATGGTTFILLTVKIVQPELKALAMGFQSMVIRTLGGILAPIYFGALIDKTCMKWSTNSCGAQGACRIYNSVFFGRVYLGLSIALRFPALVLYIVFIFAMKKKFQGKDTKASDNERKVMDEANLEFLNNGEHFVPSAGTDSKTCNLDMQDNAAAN

[6] = molecular target: T2, C-X-C chemokine receptor type 3 (Homo sapiens) (UniProt P49682); assay: Binding affinity to human CXCR3 expressed in CHO-K1 cell membrane assessed as dissociation rate constant (koff) using tritium-labeled ligand by […] assay; type: cell membranes; settings: filed as antagonist
T2 sequence (whole entry): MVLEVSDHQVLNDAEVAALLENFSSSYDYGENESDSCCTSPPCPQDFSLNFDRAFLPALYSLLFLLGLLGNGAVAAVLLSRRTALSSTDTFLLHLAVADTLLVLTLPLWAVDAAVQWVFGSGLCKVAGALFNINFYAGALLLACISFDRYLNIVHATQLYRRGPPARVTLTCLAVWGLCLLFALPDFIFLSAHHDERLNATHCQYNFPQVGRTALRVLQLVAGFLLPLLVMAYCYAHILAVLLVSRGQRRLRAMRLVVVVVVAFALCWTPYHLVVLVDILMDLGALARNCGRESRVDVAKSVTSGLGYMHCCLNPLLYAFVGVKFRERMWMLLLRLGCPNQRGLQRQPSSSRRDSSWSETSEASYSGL

[7] = molecular target: T3, C-X-C chemokine receptor type 3 (Homo sapiens, UniProt P49682); assay: Antagonist activity at human CXCR3 expressed in CHO-K1 cells assessed as reduction in CXCL9 induced calcium flux by FLIPR method; type: cell-based
T3 sequence (P49682 whole entry): T2 sequence (whole entry)

[8] = molecular target: T4, Cytochrome P450 2C9 (Homo sapiens, UniProt P11712); assay: Competitive inhibition of CYP2C9 (unknown origin); type: ADME
T4 sequence (P11712 whole entry): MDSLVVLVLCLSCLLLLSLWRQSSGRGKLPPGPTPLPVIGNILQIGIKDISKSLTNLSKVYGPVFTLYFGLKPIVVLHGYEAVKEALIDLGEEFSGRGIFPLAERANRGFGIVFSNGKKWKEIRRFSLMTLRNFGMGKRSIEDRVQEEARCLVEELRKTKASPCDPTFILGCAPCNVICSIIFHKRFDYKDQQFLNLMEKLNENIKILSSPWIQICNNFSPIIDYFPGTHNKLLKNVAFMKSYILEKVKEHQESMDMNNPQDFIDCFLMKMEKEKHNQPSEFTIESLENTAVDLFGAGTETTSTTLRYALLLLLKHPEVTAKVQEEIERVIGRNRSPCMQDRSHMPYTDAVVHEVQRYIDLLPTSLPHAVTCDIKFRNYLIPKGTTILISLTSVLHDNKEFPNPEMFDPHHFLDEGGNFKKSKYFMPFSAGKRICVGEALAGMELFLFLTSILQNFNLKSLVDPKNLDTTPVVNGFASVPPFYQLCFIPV

[9] = Oral bioavailability in Beagle dog at 2.5 mg/kg; type: ADME, organism-based, Canis lupus familiaris; settings: in vivo
[10] = Metabolic stability in human liver microsomes assessed as M3 metabolite formation at 1 uM and measured upto 15 mins in presence of NADPH regenerating system by LC-MS/MS analysis; type: ADME, Microsome; settings: 0.25 h
[11] = molecular target: T4, Cytochrome P450 2C9; assay: Time dependent inhibition of CYP2C9 (unknown origin); type: ADME
[12] = Metabolic stability in human hepatocytes assessed as intrinsic clearance per 10^6 cells at 1 uM by LC-MS/MS analysis; type: ADME, cell-based, Hepatocyte
[13] = Volume of distribution at steady state in Wistar rat at 3 mg/kg,iv or 3 mg/kg, po; type: ADME, organism-based; settings: in vivo, read-out: Vdss
[14] = molecular target: C-C chemokine receptor type 7 (Homo sapiens) (UniProt P32248); assay: Binding affinity to CCR7 (unknown origin) at 10 uM by radioligand binding assay
Chain of C-C chemokine receptor type 7 (Homo sapiens) (P32248 whole entry): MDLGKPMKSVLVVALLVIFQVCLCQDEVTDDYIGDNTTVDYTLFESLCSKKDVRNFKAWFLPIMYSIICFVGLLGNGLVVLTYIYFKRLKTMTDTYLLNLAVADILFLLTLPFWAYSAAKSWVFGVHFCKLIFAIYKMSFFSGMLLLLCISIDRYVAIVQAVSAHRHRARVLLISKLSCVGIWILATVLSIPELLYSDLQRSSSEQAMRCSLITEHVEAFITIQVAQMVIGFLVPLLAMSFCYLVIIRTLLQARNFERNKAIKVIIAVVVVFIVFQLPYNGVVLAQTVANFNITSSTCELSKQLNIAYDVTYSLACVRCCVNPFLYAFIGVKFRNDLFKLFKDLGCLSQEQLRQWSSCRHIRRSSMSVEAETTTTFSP

[15] = molecular target: fMet-Leu-Phe receptor (Homo sapiens) (UniProt P21462); assay: Binding affinity to FPR1 (unknown origin) at 10 uM by radioligand binding assay
[16] = Metabolic stability in dog hepatocyte assessed as M3 metabolite formation at 1 uM and measured upto 15 mins in presence of NADPH regenerating system by LC-MS/MS analysis; type: ADME, cell-based, Canis lupus familiaris; settings: hepatocytes, 0.25 h
[17] = AUC (0 to last) in Cynomolgus monkey at 1.0 mg/kg,iv or 1.25 mg/kg, po; type: ADME, organism-based, Macaca fascicularis; design: dose 1 mg/kg, route iv; settings: in vivo
[18] = molecular target: C-X-C chemokine receptor type 6 (Homo sapiens) (UniProt O00574); assay: Binding affinity to CXCR6 (unknown origin) at 10 uM by radioligand binding assay
[19] = molecular target: hERG (KCNH2) (Homo sapiens, UniProt Q12809); assay: (§1) Inhibition of human ERG K+ currents by GLP assay; type: toxicity; settings: human
Chain of hERG (KCNH2) (Q12809 whole entry): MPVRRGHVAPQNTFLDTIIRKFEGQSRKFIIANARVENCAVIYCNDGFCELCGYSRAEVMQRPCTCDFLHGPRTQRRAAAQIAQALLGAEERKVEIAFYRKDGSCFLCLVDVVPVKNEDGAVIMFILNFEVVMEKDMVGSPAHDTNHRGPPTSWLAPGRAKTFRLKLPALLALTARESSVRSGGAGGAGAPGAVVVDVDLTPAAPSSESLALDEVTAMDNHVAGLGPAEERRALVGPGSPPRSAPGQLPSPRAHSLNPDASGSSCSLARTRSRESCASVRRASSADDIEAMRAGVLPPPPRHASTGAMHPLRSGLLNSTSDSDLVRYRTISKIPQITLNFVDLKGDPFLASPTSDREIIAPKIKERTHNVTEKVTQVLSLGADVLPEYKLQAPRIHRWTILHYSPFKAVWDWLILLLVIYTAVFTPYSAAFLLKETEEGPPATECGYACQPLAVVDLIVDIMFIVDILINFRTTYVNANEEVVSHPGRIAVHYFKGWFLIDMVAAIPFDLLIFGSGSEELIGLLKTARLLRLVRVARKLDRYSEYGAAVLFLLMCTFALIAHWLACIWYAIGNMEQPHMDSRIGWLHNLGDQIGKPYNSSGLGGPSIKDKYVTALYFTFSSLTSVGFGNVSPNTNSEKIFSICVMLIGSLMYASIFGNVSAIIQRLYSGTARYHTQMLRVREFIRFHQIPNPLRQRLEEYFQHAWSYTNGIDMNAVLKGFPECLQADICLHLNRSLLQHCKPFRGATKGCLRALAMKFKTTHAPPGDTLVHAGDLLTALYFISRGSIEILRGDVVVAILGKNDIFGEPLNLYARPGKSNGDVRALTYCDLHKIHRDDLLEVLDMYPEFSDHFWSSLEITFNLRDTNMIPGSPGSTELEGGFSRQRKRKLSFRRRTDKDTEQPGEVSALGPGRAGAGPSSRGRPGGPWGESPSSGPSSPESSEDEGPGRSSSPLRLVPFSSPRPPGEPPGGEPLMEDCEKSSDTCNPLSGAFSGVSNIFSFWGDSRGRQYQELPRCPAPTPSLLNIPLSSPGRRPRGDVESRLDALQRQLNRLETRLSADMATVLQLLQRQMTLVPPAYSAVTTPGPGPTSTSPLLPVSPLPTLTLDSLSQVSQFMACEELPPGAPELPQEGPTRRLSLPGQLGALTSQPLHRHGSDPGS

[20] = molecular target: Voltage-gated inwardly rectifying potassium channel KCNH2 (Homo sapiens, UniProt Q12809); assay: as §1; type: toxicity
Chain of Voltage-gated inwardly rectifying potassium channel KCNH2 (Q12809 whole entry): as above

[21] = Oral bioavailability in Wistar rat at 3 mg/kg; type: ADME, organism-based; settings: in vivo
[22] = molecular target: T3, C-X-C chemokine receptor type 3; assay: Antagonist activity at human CXCR3 expressed in CHO-K1 cells assessed as reduction in CXCL11 induced calcium flux by FLIPR method; type: cell-based
[23] = molecular target: T3, C-X-C chemokine receptor type 3; assay: Antagonist activity at CXCR3 in human whole blood assessed as receptor internalization incubated for 30 mins in presence of CXCL10 by flow cytometric analysis; type: tissue-based
[24] = Cmax in Wistar rat at 3 mg/kg,iv or 3 mg/kg, po; type: ADME, organism-based; design: dose 3 mg/kg, route iv; settings: in vivo
[25] = test system: NIH3T3; assay: Phototoxicity in BALB/c mouse 3T3 cells upto 100 ug/ml in presence of irradiation; type: toxicity, cell-based; settings: dose < 100 µg/ml
[26] = Cmax in LPS-induced DBA/1 mouse plasma at 0.06 microg/g, po bid preincubated for 3 days followed by LPS stimulation for 30 mins and measured after 72 hrs by flow cytometry; type: ADME, organism-based; design: time 6 day, dose 0.06 µg/g, route po; settings: 0.06 µg/g
[27] = molecular target: C3a anaphylatoxin chemotactic receptor (Homo sapiens) (UniProt Q16581); assay: Binding affinity to C3aR1 (unknown origin) at 10 uM by radioligand binding assay
Chain of C3a anaphylatoxin chemotactic receptor (Homo sapiens) (Q16581 whole entry): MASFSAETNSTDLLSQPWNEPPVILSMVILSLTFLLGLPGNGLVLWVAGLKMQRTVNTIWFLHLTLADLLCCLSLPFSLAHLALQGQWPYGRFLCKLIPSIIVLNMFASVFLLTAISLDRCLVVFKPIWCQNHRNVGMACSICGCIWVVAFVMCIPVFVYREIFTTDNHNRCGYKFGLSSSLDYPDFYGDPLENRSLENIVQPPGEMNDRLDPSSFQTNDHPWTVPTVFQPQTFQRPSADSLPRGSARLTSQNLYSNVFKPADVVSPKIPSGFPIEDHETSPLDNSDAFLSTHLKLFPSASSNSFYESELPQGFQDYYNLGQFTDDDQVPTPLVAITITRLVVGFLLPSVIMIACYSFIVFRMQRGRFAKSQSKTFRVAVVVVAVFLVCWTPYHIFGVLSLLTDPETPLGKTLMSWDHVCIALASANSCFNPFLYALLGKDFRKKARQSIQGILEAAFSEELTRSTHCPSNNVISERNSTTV

[28] = Metabolic stability in rat liver microsomes assessed as M3 metabolite formation at 1 uM and measured upto 15 mins in presence of NADPH regenerating system by LC-MS/MS analysis; type: ADME, Microsome; settings: 0.25 h
[29] = molecular target: C-X-C chemokine receptor type 3 (Canis lupus familiaris, UniProt Q5KSK8); assay: Antagonist activity at dog CXCR3 expressed in CHO-K1 cells assessed as reduction in CXCL10 induced calcium flux by FLIPR method; type: cell-based
[30] = molecular target: Solute carrier organic anion transporter family member 1B1 (Homo sapiens, UniProt Q9Y6L6); assay: Inhibition of human OATP1B1; type: ADME
Chain of Solute carrier organic anion transporter family member 1B1 (Q9Y6L6 whole entry): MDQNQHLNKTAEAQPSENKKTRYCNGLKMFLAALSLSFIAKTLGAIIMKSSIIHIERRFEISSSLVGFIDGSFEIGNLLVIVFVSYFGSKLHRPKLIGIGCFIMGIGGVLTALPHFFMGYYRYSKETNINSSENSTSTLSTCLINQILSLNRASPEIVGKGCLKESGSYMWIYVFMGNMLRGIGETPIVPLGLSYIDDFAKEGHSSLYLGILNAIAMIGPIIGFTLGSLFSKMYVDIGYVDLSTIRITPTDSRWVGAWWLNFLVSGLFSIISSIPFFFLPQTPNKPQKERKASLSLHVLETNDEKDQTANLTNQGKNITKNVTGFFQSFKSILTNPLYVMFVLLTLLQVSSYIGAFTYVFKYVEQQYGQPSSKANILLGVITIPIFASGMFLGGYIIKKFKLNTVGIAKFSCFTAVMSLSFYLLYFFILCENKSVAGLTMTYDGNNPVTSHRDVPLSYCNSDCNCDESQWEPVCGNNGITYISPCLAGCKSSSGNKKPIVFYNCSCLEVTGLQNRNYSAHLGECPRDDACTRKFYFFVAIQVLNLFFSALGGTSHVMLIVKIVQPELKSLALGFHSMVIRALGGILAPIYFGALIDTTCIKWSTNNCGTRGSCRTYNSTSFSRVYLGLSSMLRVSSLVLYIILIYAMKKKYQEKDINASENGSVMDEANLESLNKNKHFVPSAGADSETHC

[31] = Total clearance in Wistar rat plasma at 0.5 mg/kg, iv; type: ADME, organism-based
[32] = Drug excretion in urine of Wistar rat assessed as unchanged drug at 1 mg/kg, iv; type: ADME, organism-based; settings: read-out: Drug excretion
[33] = Metabolic stability in rat hepatocytes assessed as intrinsic clearance per 10^6 cells at 1 uM by LC-MS/MS analysis; type: ADME, cell-based, Hepatocyte

Cc1ncn(CC(=O)N2CCN(c3sc(C(F)(F)F)nc3-c3cnc(C(F)(F)F)nc3)C[C@H]2CCO)n1
IC50 [1]: > 50000 nM | Stability [2]: Unstable | IC50 [3]: 1.5 nM | Activity [4]: Not Active | inhibition (INH) [5]: Not Active | Kdiss [6]: 0.03 s⁻¹ | IC50 [7]: 3.3 nM | IC50 [8]: > 50000 nM | bioavailability [9]: 89% | Stability [10]: Unstable | IC50 [11]: > 50000 nM | CLH [12]: < 2 µL/min/mg | Vd [13]: 2.7 L/kg | Activity [14]: inactive | Activity [15]: inactive | Stability [16]: Unstable | AUC(0-t) [17]: 3610 ng·h/mL | Activity [18]: inactive | IC20 [19]: 3 µg/mL (≈ 5.45 µM) | IC50 [20]: 15400 nM | bioavailability [21]: 80% | IC50 [22]: 5.3 nM | IC50 [23]: 56 nM | Cmax [24]: 910 ng/mL | Activity [25]: Non-Toxic | Cmax [26]: 559 ng/mL | Activity [27]: inactive | Stability [28]: Unstable | IC50 [29]: 2.8 nM | inhibition (INH) [30]: Not Active | clearance [31]: 14 mL/min/kg | dose excreted [32]: 4.4% | CLH [33]: < 2 µL/min/mg
